From US8436210B2, “Amide compound and bacterial disease control agent for agricultural and horticultural use” (The University of Tokyo, priority 2007, dated 2013)

Legend:
[1] = tested on: Burkholderia glumae; test: Test Example 1: toxoflavin (toxin) production by Burkholderia glumae in LB culture; format: cell-based; details: for toxin doses (toxoflavin) produced by bacteria as concentration of compound increased: 0, 20, 40, 60, 80 or 100 μM, shake culturing 20 hours, LB medium, FIG. 1
Method: Burkholderia glumae was inoculated into an LB culture medium (produced by BD, Difco LB Broth: containing tryptone (10.0 g), yeast extract (5.0 g), and sodium chloride (10.0 g)), and cultured at 37° C. overnight. The broth thus obtained was subjected to bacterial collection using a centrifuge, and the collected bacteria were washed with an LB culture medium twice using a fresh LB culture medium each time. A fresh LB culture medium was added to the bacteria, and then Compound (1a-3) produced in Production Example 3 was added thereto in such a manner that its final concentration became a predetermined value (i.e., 0, 20, 40, 60, 80 or 100 μM), followed by shake culturing for 20 hours. The amount of toxoflavin produced by the bacteria in the broth was obtained by the following procedure.
Each broth was filtered by a 0.22-μm membrane filter, and 1 mL of the filtrate was isolated. One mL of chloroform was added to the filtrate, followed by extraction. The thus-obtained chloroform layer was concentrated under reduced pressure, and an 80% (V/V) aqueous methanol solution was added to and dissolved in the residue. The absorbance (at 260 nm) of the solution was measured, and the toxin doses were calculated from the calibration curve, which was obtained using a chemically synthesized standard toxin.
The same test was conducted as a comparative test using the compound (comparative compound) shown by the formula below disclosed in Patent Document 1.

[2] = tested on: Burkholderia glumae; test: Test Example 2: onset of Burkholderia glumae infection on rice sprayed with test liquid; format: in vivo; details: for percentage of flower clusters with score 0 / percentage of flower clusters with score 1 / percentage of flower clusters with score 2 / percentage of flower clusters with score 3 / percentage of flower clusters with score 4 / percentage of flower clusters with score 5: Korean rice (Milyang 23), 7 days; for percentage of flower clusters with score 1: score 1 = 0.1% to 20% onset; for percentage of flower clusters with score 2: score 2 = 20% to 40% onset; for percentage of flower clusters with score 3: score 3 = 40% to 60% onset; for percentage of flower clusters with score 4: score 4 = 60% to 80% onset; for percentage of flower clusters with score 5: score 5 = 80% to 100% onset
Method: […] In a separate procedure, Burkholderia glumae were seeded to an LB culture medium and cultured overnight at 37° C., preparing an broth for infection.
Each test liquid (10 mL) was sprayed onto Korean rice (Milyang 23) raised in a hothouse until the flowering stage. The broth for infection was sprayed onto the rice one hour after the application of the test liquid. After cultivation for seven days, the onset of Burkholderia glumae infection on the rice was evaluated.
The evaluation was conducted by picking an ear from each plant, making a total of three ears. In each flower cluster (grain), the percentage of the portion that suffered from the onset of infection (i.e., the portion that turned brown) caused by the toxoflavin produced by Burkholderia glumae was visually observed and scored based on the scale shown below. The percentage of the total flower clusters was obtained and scored to indicate the onset of the infection.
The percentage that suffered from the onset of infection:
Not less than 0.1% and not greater than 20%: 1
Not less than 20% and not greater than 40%: 2
Not less than 40% and not greater than 60%: 3
Not less than 60% and not greater than 80%: 4
In this evaluation, three flower clusters (grains) having the same conditions were prepared, and reproducibility was confirmed by repeating the same evaluation three times. The same evaluation was also conducted as a comparative test except that water was used instead of the test liquid. Further, the same evaluation was conducted to serve as a blank except that water was used instead of both the test liquid and the broth for infection.

[3] = tested on: Burkholderia glumae; test: Test Example 3: onset of Burkholderia glumae infection on rice sprayed with test liquid; format: in vivo; details: for percentage of flower clusters with score 0: score 0 = less than 0.1% onset; for percentage of flower clusters with score 0 / percentage of flower clusters with score 1 / percentage of flower clusters with score 2 / percentage of flower clusters with score 3 / percentage of flower clusters with score 4 / percentage of flower clusters with score 5: Korean rice (Milyang 23), 7 days, infection broth sprayed 1 h after treatment; for percentage of flower clusters with score 1: score 1 = 0.1% to 20% onset; for percentage of flower clusters with score 2: score 2 = 20% to 40% onset; for percentage of flower clusters with score 3: score 3 = 40% to 60% onset; for percentage of flower clusters with score 4: score 4 = 60% to 80% onset; for percentage of flower clusters with score 5: score 5 = 80% to 100% onset
Method: Each test liquid (10 mL) was sprayed onto Korean rice ([…] 23) raised in a hothouse until the flowering stage. The broth for infection was sprayed onto the rice one hour after the application of the test liquid. After cultivation for seven days, the onset of Burkholderia glumae infection on the rice was evaluated in the same manner as in Test Example 2. The same evaluation was conducted as the comparative test in the same manner except that water was used instead of the test liquid. Further, the same evaluation was conducted to serve as a blank using water instead of both the test liquid and the broth for infection.

In the case of `CCCCCCCC(=O)NC1=CC(=O)CCC1` [Compound (1a-3), N-(3-oxo-cyclohexen-1-yl)octanamide], the “toxin doses (toxoflavin) produced by bacteria as concentration of compound increased” value [1] is reported as “remarkably decreased”, the “percentage of flower clusters with score 0” value ([2]; 50 μM spray, score 0 = less than 0.1% of portion with onset of infection) is reported as 73% and the “percentage of flower clusters with score 1” value ([2]; 50 μM spray) is reported as 20%. For the same compound, the “percentage of flower clusters with score 2” value ([2]; 50 μM spray) was 6%, the “percentage of flower clusters with score 3” value ([2]; 50 μM spray) was 1% and the “percentage of flower clusters with score 4” value ([2]; 50 μM spray) was 0%. For the same compound, the “percentage of flower clusters with score 5” value ([2]; 50 μM spray) was 0%, the “percentage of flower clusters with score 0” value ([2]; 100 μM spray, score 0 = less than 0.1% onset) was 85% and the “percentage of flower clusters with score 1” value ([2]; 100 μM spray) was 10%. For the same compound, the “percentage of flower clusters with score 2” value ([2]; 100 μM spray) was 3%, the “percentage of flower clusters with score 3” value ([2]; 100 μM spray) was 0% and the “percentage of flower clusters with score 4” value ([2]; 100 μM spray) was 1%. The “percentage of flower clusters with score 5” value ([2]; 100 μM spray) was 1%, the “percentage of flower clusters with score 0” value ([2]; 150 μM spray, score 0 = less than 0.1% onset) was 84% and the “percentage of flower clusters with score 1” value ([2]; 150 μM spray) was 9%. The “percentage of flower clusters with score 4” value ([2]; 150 μM spray) was 1%, the “percentage of flower clusters with score 5” value ([2]; 150 μM spray) was 1% and the “percentage of flower clusters with score 2” value [2] was 4%. For the same compound, the “percentage of flower clusters with score 3” value [2] was 1%, the “onset of Burkholderia glumae on rice” value ([2]; test liquid sprayed onto rice, then broth for infection, Table 1 and FIG. 2) was “prevented” and the “percentage of flower clusters with score 0” value ([3]; 50 μM spray) was 62%. The “percentage of flower clusters with score 1” value ([3]; 50 μM spray) was 15%, the “percentage of flower clusters with score 2” value ([3]; 50 μM spray) was 19% and the “percentage of flower clusters with score 3” value ([3]; 50 μM spray) was 2%. For the same compound, the “percentage of flower clusters with score 4” value ([3]; 50 μM spray) was 1%, the “percentage of flower clusters with score 5” value ([3]; 50 μM spray) was 1% and the “percentage of flower clusters with score 0” value ([3]; 100 μM spray) was 82%. For the same compound, the “percentage of flower clusters with score 1” value ([3]; 100 μM spray) was 9%, the “percentage of flower clusters with score 2” value ([3]; 100 μM spray) was 7% and the “percentage of flower clusters with score 3” value ([3]; 100 μM spray) was 1%. The “percentage of flower clusters with score 4” value ([3]; 100 μM spray) was 1%, the “percentage of flower clusters with score 5” value ([3]; 100 μM spray) was 0% and the “percentage of flower clusters with score 0” value ([3]; 150 μM spray) was 89%. The “percentage of flower clusters with score 1” value ([3]; 150 μM spray) was 8%, the “percentage of flower clusters with score 3” value ([3]; 150 μM spray) was 1% and the “percentage of flower clusters with score 2” value [3] was 1%. For the same compound, the “percentage of flower clusters with score 4” value [3] was 1%, the “percentage of flower clusters with score 5” value [3] was 0% and the “onset of Burkholderia glumae on rice” value ([3]; test liquid sprayed onto rice, then broth for infection, Table 2 and FIG. 3) was “prevented”.
For `CCCCCCCCCC(=O)CC(=O)Nc1ccccc1O` [comparative compound], the “toxin doses (toxoflavin) produced by bacteria as concentration of compound increased” value [1] was “almost no change” and the “control effect on bacterial infections” value ([1]; statement in background referring to the Test Example) was “no control effect”.
